Key:
Type in all cases: in vivo
[1] = test system: Amaranthus retroflexus; test: Test Example 5: herbicidal effect by foliage application, plastic box (symbol N); conditions: 320 g/ha, 3 weeks after application
Procedure, shortened: (§1)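 Emulsion formulation, diluted with water to the intended rate, was applied uniformly to leaves by small sprayer. Recipients were 14-day greenhouse-grown seedlings (25° C. to 30° C.). Assessment followed at 3 weeks.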

[2] = test system: Setaria viridis; test: Test Example 5: herbicidal effect by foliage application, plastic box (symbol G); conditions: 320 g/ha, 3 weeks after application
Procedure, shortened: as §1

[3] = test system: Echinochloa oryzacola Vasing.; test: Test Example 1: herbicidal activity, application before weed generation in submerged conditions (symbol A); conditions: application herbicide amount 320 g/ha
From the text: (§2) Herbicidal Activity Test by Application Before Weed Generation in Submerged Conditions
(§3) After alluvial soil was placed into 1/10000 are of Wagner pot, water was poured and mixed to form a submerged condition having a water depth of 4 cm. Seeds of Echinochloa oryzacola Vasing., Scirpus juncoides, and Monochoria vaginalis were sowed in a mixed manner in the above pot and thereafter 2.5 leaf stage rice plant seedlings were transplanted thereto. On the day of sowing seeds, the emulsion agent of the compound of the present invention prepared in accordance with Formulation Example 2 was diluted with water so as to be a predetermined herbicide amount and the diluted emulsion agent was applied to the surface of the water. The pot was placed in a greenhouse of 25° C. to 30° C. to grow plant. 3 weeks later from the herbicide application, the effect to each plant was investigated in accordance with the following criteria.
(§4) 5 Herbicidal ratio of 90% or more (almost completely withered)
(§5) 4 Herbicidal ratio of 70% or higher and lower than 90%
(§6) 3 Herbicidal ratio of 40% or higher and lower than 70%
(§7) 2 Herbicidal ratio of 20% or higher and lower than 40%
(§8) 1 Herbicidal ratio of 5% or higher and lower than 20%
(§9) 0 Herbicidal ratio of 5% or lower (almost no effect)

[4] = test system: Alopecurus myosuroides; test: Test Example 5: herbicidal effect by foliage application, plastic box (symbol J); conditions: 320 g/ha, 3 weeks after application
Procedure, shortened: as §1

[5] = test system: Galium spurium; test: Test Example 5: herbicidal effect by foliage application, plastic box (symbol Q); conditions: 320 g/ha, 3 weeks after application
Procedure, shortened: as §1

[6] = test system: Abutilon theophrasti; test: Test Example 5: herbicidal effect by foliage application, plastic box (symbol M); conditions: 320 g/ha, 3 weeks after application
Procedure, shortened: as §1

[7] = test system: beet; test: Test Example 5: effect on crop by foliage application, plastic box (symbol f); conditions: 320 g/ha, 3 weeks after application
Procedure, shortened: (§10)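 Seeds were sown in spots in sterilized diluvial soil held in a plastic box 21 cm × 13 cm × 7 cm deep, covered with about 1.5 cm of soil, and grown in a greenhouse at 25° C. to 30° C.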

[8] = test system: Scirpus juncoides; test: Test Example 1: herbicidal activity, application before weed generation in submerged conditions (symbol B); conditions: application herbicide amount 320 g/ha
From the text: as §2, §3, §4, §5, §6, §7, §8, §9

[9] = test system: Digitaria ciliaris; test: Test Example 5: herbicidal effect by foliage application, plastic box (symbol F); conditions: 320 g/ha, 3 weeks after application
Procedure, shortened: as §1

[10] = test system: Stellaria media; test: Test Example 5: herbicidal effect by foliage application, plastic box (symbol P); conditions: 320 g/ha, 3 weeks after application
Procedure, shortened: as §1

[11] = test system: Echinochloa crus-galli var. crus-galli; test: Test Example 3: herbicidal effect by foliage application, Wagner pot (symbol H); conditions: application herbicide amount 320 g/ha
Procedure, shortened: (§11)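 Weeds and rice were sown in alluvial soil under 0.1–0.5 cm of standing water and grown for 14 days in a 25–30 °C greenhouse. An emulsion of the compound, diluted in water to a set dose, was sprayed evenly onto the foliage. Effect was scored against fixed criteria 3 weeks after treatment.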

[12] = test system: Avena fatua; test: Test Example 5: herbicidal effect by foliage application, plastic box (symbol I); conditions: 320 g/ha, 3 weeks after application
Procedure, shortened: as §1

[13] = test system: Apera spica-venti; test: Test Example 5: herbicidal effect by foliage application, plastic box (symbol L); conditions: 320 g/ha, 3 weeks after application
Procedure, shortened: as §1

[14] = test system: directly sowed rice plant; test: Test Example 3: effect on crop by foliage application, Wagner pot (symbol b); conditions: application herbicide amount 320 g/ha
Procedure, shortened: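 Steps: fill a 1/10000-are Wagner pot with alluvial soil; add water and mix to submerge at 0.1–0.5 cm depth; sow rice plus Echinochloa crus-galli var. crus-galli, Leptochloa chinensis and Cyperus difformis; grow in a 25–30 °C greenhouse.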

[15] = test system: Echinochloa crus-galli var. crus-galli; test: Test Example 5: herbicidal effect by foliage application, plastic box (symbol H); conditions: 320 g/ha, 3 weeks after application
Procedure, shortened: as §1

[16] = test system: rice plant; test: Test Example 5: effect on crop by foliage application, plastic box (symbol b); conditions: 320 g/ha, 3 weeks after application
Procedure, shortened: as §10

[17] = test system: Veronica persica; test: Test Example 5: herbicidal effect by foliage application, plastic box (symbol R); conditions: 320 g/ha, 3 weeks after application
Procedure, shortened: as §1

[18] = test system: transplanted rice plant; test: Test Example 1: effect on crop, application before weed generation in submerged conditions (symbol a); conditions: application herbicide amount 320 g/ha
Experimental: as §2
as §3, with “On the day of sowing seeds, the emulsion agent of the compound of the present invention prepared in accordance with Formulation Example 2 was diluted with water so as to be a predetermined herbicide amount and the diluted emulsion agent was applied to the surface of the water.” left out
as §4, §5, §6, §7, §8, §9

[19] = test system: soybean; test: Test Example 5: effect on crop by foliage application, plastic box (symbol d); conditions: 320 g/ha, 3 weeks after application
Procedure, shortened: as §10

[20] = test system: Lolium multiflorum Lam.; test: Test Example 5: herbicidal effect by foliage application, plastic box (symbol K); conditions: 320 g/ha, 3 weeks after application
Procedure, shortened: as §1

[21] = test system: corn; test: Test Example 5: effect on crop by foliage application, plastic box (symbol c); conditions: 320 g/ha, 3 weeks after application
Procedure, shortened: as §10

[22] = test system: Chenopodium album; test: Test Example 5: herbicidal effect by foliage application, plastic box (symbol O); conditions: 320 g/ha, 3 weeks after application
Procedure, shortened: as §1

[23] = test system: wheat; test: Test Example 5: effect on crop by foliage application, plastic box (symbol e); conditions: 320 g/ha, 3 weeks after application
Procedure, shortened: as §10

[24] = test system: rapeseed; test: Test Example 5: effect on crop by foliage application, plastic box (symbol g); conditions: 320 g/ha, 3 weeks after application
Procedure, shortened: as §10

[25] = test system: Monochoria vaginalis; test: Test Example 1: herbicidal activity, application before weed generation in submerged conditions (symbol C); conditions: application herbicide amount 320 g/ha
From the text: as §2, §3, §4, §5, §6, §7, §8, §9

[26] = test system: Leptochloa chinensis; test: Test Example 3: herbicidal effect by foliage application, Wagner pot (symbol D); conditions: application herbicide amount 320 g/ha
Procedure, shortened: as §11

[27] = test system: Cyperus difformis; test: Test Example 3: herbicidal effect by foliage application, Wagner pot (symbol E); conditions: application herbicide amount 320 g/ha
Procedure, shortened: as §11

SMILES	N: Amaranthus retroflexus, herbicidal effect (criteria of Test Example 1) [1]	G: Setaria viridis, herbicidal effect (criteria of Test Example 1) [2]	Herbicidal effect grade, A: Echinochloa oryzacola Vasing. [3]	J: Alopecurus myosuroides, herbicidal effect (criteria of Test Example 1) [4]	Q: Galium spurium, herbicidal effect (criteria of Test Example 1) [5]	M: Abutilon theophrasti, herbicidal effect (criteria of Test Example 1) [6]	f: beet, effect on crop (criteria of Test Example 1) [7]	Herbicidal effect grade, B: Scirpus juncoides [8]	F: Digitaria ciliaris, herbicidal effect (criteria of Test Example 1) [9]	P: Stellaria media, herbicidal effect (criteria of Test Example 1) [10]	I: Avena fatua, herbicidal effect (criteria of Test Example 1) [12]	L: Apera spica-venti, herbicidal effect (criteria of Test Example 1) [13]	H: Echinochloa crus-galli var. crus-galli, herbicidal effect (criteria of Test Example 1) [15]	b: directly sowed rice plant, effect on crop (criteria of Test Example 1) [16]	R: Veronica persica, herbicidal effect (criteria of Test Example 1) [17]	Effect grade on crop, a: transplanted rice plant [18]	d: soybean, effect on crop (criteria of Test Example 1) [19]	K: Lolium multiflorum Lam., herbicidal effect (criteria of Test Example 1) [20]	c: corn, effect on crop (criteria of Test Example 1) [21]	O: Chenopodium album, herbicidal effect (criteria of Test Example 1) [22]	further results
CCCC=Cc1cc(C)c(C2=C(O)CC(CC(C)=O)C2=O)c(C)c1 (stereo not drawn) [7-022]	0 (Herbicidal ratio of 5% or lower (almost no effect))	0 (Herbicidal ratio of 5% or lower (almost no effect))	4 (Herbicidal ratio of 70% or higher and lower than 90%)	0 (Herbicidal ratio of 5% or lower (almost no effect))	0 (Herbicidal ratio of 5% or lower (almost no effect))	0 (Herbicidal ratio of 5% or lower (almost no effect))	0 (Herbicidal ratio of 5% or lower (almost no effect))	2 (Herbicidal ratio of 20% or higher and lower than 40%)	0 (Herbicidal ratio of 5% or lower (almost no effect))	0 (Herbicidal ratio of 5% or lower (almost no effect))	0 (Herbicidal ratio of 5% or lower (almost no effect))	0 (Herbicidal ratio of 5% or lower (almost no effect))	1 (Herbicidal ratio of 5% or higher and lower than 20%)	0 (Herbicidal ratio of 5% or lower (almost no effect))	0 (Herbicidal ratio of 5% or lower (almost no effect))	3 (Herbicidal ratio of 40% or higher and lower than 70%)	0 (Herbicidal ratio of 5% or lower (almost no effect))	2 (Herbicidal ratio of 20% or higher and lower than 40%)	0 (Herbicidal ratio of 5% or lower (almost no effect))	0 (Herbicidal ratio of 5% or lower (almost no effect))	herbicidal effect on H (Echinochloa crus-galli var. crus-galli), grade 0-5 [11]: 0 (Herbicidal ratio of 5% or lower (almost no effect)); effect on crop b (directly sowed rice plant), grade 0-5 [14]: 0 (Herbicidal ratio of 5% or lower (almost no effect)); e: wheat, effect on crop (criteria of Test Example 1) [23]: 0 (Herbicidal ratio of 5% or lower (almost no effect)); g: rapeseed, effect on crop (criteria of Test Example 1) [24]: 0 (Herbicidal ratio of 5% or lower (almost no effect)); Herbicidal effect grade, C: Monochoria vaginalis [25]: 3 (Herbicidal ratio of 40% or higher and lower than 70%); herbicidal effect on D (Leptochloa chinensis), grade 0-5 [26]: 4 (Herbicidal ratio of 70% or higher and lower than 90%); herbicidal effect on E, grade 0-5 [27]: 0 (Herbicidal ratio of 5% or lower (almost no effect))
CC(=O)CC1CC(O)=C(c2c(C)cc(-n3cncn3)cc2C)C1=O (stereo not drawn) [7-026]	0 (Herbicidal ratio of 5% or lower (almost no effect))	0 (Herbicidal ratio of 5% or lower (almost no effect))	3 (Herbicidal ratio of 40% or higher and lower than 70%)	1 (Herbicidal ratio of 5% or higher and lower than 20%)	0 (Herbicidal ratio of 5% or lower (almost no effect))	0 (Herbicidal ratio of 5% or lower (almost no effect))	0 (Herbicidal ratio of 5% or lower (almost no effect))	0 (Herbicidal ratio of 5% or lower (almost no effect))	0 (Herbicidal ratio of 5% or lower (almost no effect))	0 (Herbicidal ratio of 5% or lower (almost no effect))	0 (Herbicidal ratio of 5% or lower (almost no effect))	0 (Herbicidal ratio of 5% or lower (almost no effect))	1 (Herbicidal ratio of 5% or higher and lower than 20%)	0 (Herbicidal ratio of 5% or lower (almost no effect))	0 (Herbicidal ratio of 5% or lower (almost no effect))	0 (Herbicidal ratio of 5% or lower (almost no effect))	0 (Herbicidal ratio of 5% or lower (almost no effect))	1 (Herbicidal ratio of 5% or higher and lower than 20%)	0 (Herbicidal ratio of 5% or lower (almost no effect))	0 (Herbicidal ratio of 5% or lower (almost no effect))	H (Echinochloa crus-galli var. crus-galli) herbicidal effect grade ([11]; Table 24): 0 (Herbicidal ratio of 5% or lower (almost no effect)); b (directly sowed rice plant) effect on crop grade ([14]; Table 24): 0 (Herbicidal ratio of 5% or lower (almost no effect)); e: wheat, effect on crop (criteria of Test Example 1) [23]: 0 (Herbicidal ratio of 5% or lower (almost no effect)); g: rapeseed, effect on crop (criteria of Test Example 1) [24]: 0 (Herbicidal ratio of 5% or lower (almost no effect)); Herbicidal effect grade, C: Monochoria vaginalis [25]: 0 (Herbicidal ratio of 5% or lower (almost no effect)); D (Leptochloa chinensis) herbicidal effect grade ([26]; Table 24): 3 (Herbicidal ratio of 40% or higher and lower than 70%); E herbicidal effect grade ([27]; Table 24): 0 (Herbicidal ratio of 5% or lower (almost no effect))

— patent US11000033B2, “Ketone or oxime compound, and herbicide” (NISSAN CHEMICAL CORPORATION, priority 2014, dated 2021)
